Earlier results in patent publication EP3842031A1, “NEW THERAPEUTIC INHALATION SYSTEM PROVIDING REDUCED DOSE OF FLUTICASONE PROPIONATE AND SALMETEROL XINAFOATE WITH IMPROVED EFFICACY AND SAFETY PROFILE” (PRZEDSIEBIORSTWO FARMACEUTYCZNE LEK-AM SP Z O. O., priority 2019, dated 2021).

How the values were obtained:
[1] = in vivo
[2] = compared with beclomethasone dipropionate, control of chronic asthma

CCC(=O)O[C@]1(C(=O)SCF)[C@H](C)C[C@H]2[C@@H]3C[C@H](F)C4=CC(=O)C=C[C@]4(C)[C@@]3(F)[C@@H](O)C[C@@]21C [Fluticasone propionate]
oral bioavailability [1]: less than 1%
potency [2]: twice the potency of the beclomethasone dipropionate
